Values of other authors, collected in article PMC9516332 (Frontiers in Oncology, 2022).
Read-outs that look alike come from different tables or passages of the source.

How the values were obtained:
[1] = target: T1, panel of 255 wild-type kinases (Homo sapiens, UniProt O14965); conditions: cited from earlier work
T1 sequence (O14965 1-403): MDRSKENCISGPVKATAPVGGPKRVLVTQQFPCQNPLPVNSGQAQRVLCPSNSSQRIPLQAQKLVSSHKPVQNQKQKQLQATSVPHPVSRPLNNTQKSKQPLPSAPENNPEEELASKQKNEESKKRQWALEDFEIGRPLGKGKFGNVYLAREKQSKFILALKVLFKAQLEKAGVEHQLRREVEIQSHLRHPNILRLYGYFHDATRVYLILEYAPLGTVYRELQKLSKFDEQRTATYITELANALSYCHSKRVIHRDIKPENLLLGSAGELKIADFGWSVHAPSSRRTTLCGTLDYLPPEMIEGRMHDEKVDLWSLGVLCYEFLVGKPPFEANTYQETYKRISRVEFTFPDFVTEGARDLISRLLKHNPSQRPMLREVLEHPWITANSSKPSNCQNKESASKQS

[2] = target: panel of 255 wild-type kinases (Homo sapiens, UniProt P07949); conditions: kinase RET, 1 µmol/L single concentration, cited from earlier work
[3] = target: panel of 255 wild-type kinases (Homo sapiens, UniProt P14616); conditions: kinase IRR, 1 µmol/L single concentration, cited from earlier work
[4] = target: panel of 255 wild-type kinases (Homo sapiens, UniProt P17612); conditions: kinase PKACα, 1 µmol/L single concentration, cited from earlier work
[5] = target: T2, panel of 255 wild-type kinases (Homo sapiens, UniProt P51813); conditions: BMX kinase assay, 1 µmol/L single concentration, cited from earlier work
T2 sequence (P51813 1-675): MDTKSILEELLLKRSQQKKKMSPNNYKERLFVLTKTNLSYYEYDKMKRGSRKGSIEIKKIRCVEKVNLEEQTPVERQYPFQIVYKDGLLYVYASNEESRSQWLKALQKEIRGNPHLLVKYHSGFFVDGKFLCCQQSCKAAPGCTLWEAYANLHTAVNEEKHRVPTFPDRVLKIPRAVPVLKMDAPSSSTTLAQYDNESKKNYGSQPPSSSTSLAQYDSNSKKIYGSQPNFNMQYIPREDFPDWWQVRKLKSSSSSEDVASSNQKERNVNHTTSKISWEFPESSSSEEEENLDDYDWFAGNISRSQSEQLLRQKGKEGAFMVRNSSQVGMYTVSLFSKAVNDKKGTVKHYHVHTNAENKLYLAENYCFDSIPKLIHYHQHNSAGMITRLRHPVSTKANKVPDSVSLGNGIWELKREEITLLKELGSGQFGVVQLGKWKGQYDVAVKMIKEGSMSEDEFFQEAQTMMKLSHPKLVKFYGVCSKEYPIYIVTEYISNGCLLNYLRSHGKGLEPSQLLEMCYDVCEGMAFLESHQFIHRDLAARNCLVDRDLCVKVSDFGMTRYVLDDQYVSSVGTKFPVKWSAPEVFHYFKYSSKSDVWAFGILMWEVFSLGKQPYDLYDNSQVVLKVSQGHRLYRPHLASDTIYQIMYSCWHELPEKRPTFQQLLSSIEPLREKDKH

[6] = target: T3, panel of 255 wild-type kinases (Homo sapiens, UniProt P53778); conditions: p38γ, 1 µmol/L single concentration, cited from earlier work
T3 sequence (P53778 1-367): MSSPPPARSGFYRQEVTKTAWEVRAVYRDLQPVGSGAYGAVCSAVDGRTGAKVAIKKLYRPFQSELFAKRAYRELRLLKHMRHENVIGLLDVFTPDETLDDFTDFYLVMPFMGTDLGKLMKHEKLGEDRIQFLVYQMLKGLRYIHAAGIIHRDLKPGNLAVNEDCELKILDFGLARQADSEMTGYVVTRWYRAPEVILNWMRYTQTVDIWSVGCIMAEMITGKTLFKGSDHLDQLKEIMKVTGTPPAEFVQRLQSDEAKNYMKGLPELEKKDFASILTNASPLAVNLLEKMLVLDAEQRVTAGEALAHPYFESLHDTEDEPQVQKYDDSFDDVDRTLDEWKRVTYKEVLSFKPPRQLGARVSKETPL

[7] = target: panel of 255 wild-type kinases (Homo sapiens, UniProt Q06187); conditions: BTK kinase assay, 1 µmol/L single concentration, cited from earlier work
[8] = target: panel of 255 wild-type kinases (Homo sapiens, UniProt Q9H4B4); conditions: kinase PLK3, 1 µmol/L single concentration, cited from earlier work
[9] = target: T4, panel of 255 wild-type kinases (Homo sapiens, UniProt Q9NWZ3); conditions: kinase IRAK4, 1 µmol/L single concentration, cited from earlier work
T4 sequence (Q9NWZ3 1-460): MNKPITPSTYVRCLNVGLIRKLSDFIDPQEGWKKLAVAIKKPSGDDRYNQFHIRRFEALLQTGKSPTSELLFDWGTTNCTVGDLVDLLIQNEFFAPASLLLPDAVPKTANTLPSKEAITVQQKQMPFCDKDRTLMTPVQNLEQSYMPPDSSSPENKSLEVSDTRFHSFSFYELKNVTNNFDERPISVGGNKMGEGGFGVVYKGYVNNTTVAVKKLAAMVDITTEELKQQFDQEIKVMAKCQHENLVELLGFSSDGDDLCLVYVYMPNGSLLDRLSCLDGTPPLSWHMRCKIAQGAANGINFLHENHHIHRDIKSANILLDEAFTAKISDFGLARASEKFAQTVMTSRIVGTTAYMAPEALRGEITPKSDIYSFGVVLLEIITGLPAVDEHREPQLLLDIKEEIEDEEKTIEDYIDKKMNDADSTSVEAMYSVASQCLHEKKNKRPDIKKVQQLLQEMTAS

[10] = target: panel of 255 wild-type kinases (Homo sapiens, UniProt Q9Y6M4); conditions: kinase CK1γ3, 1 µmol/L single concentration, cited from earlier work
[11] = ref DOI: 10.1158/1535-7163.MCT-18-0877
[12] = ref DOI: 10.1371/journal.pone.0092146

CO[C@@H]1[C@H](N(C)C(=O)c2ccccc2)C[C@H]2O[C@]1(C)n1c3ccccc3c3c4c(c5c6ccccc6n2c5c31)C(=O)NC4 [midostaurin]
%-inhibition AurA [1]: 100% | %-inhibition AurA/TPX2 [1]: 91% | %-inhibition at 1 µmol/L, RET [2, 11]: 94% | %-inhibition at 1 µmol/L, IRR [3, 11]: 26% | %-inhibition at 1 µmol/L, PKACα [4, 11]: 93% | %-inhibition BMX [5, 11]: 81% | %-inhibition, p38γ [6, 11]: 7% | %-inhibition BTK [7, 11]: 59% | %-inhibition at 1 µmol/L, PLK3 [8, 11]: -0.227% | %-inhibition at 1 µmol/L, IRAK4 [9, 11]: 27% | %-inhibition at 1 µmol/L, CK1γ3 [10, 11]: -1.25%

C=CC(=O)Nc1cc(Nc2nccc(-c3cn(C)c4ccccc34)n2)c(OC)cc1N(C)CCN(C)C [osimertinib]
%-inhibition AurA ([1]; AurA kinase assay, 1 µmol/L single concentration, ref DOI: 10.1158/1535-7163.MCT-18-0877): 9% | %-inhibition AurA/TPX2 ([1]; AurA/TPX2 kinase assay, 1 µmol/L single concentration, ref DOI: 10.1158/1535-7163.MCT-18-0877): 7.38% | %-inhibition at 1 µmol/L, RET [2, 11]: 7% | %-inhibition at 1 µmol/L, IRR [3, 11]: 77% | %-inhibition at 1 µmol/L, PKACα [4, 11]: -11% | %-inhibition BMX [5, 11]: 57% | %-inhibition, p38γ [6, 11]: 2.19% | %-inhibition BTK [7, 11]: 84% | %-inhibition at 1 µmol/L, PLK3 [8, 11]: 5% | %-inhibition at 1 µmol/L, IRAK4 [9, 11]: -2.76% | %-inhibition at 1 µmol/L, CK1γ3 [10, 11]: 13%

CCCS(=O)(=O)Nc1ccc(F)c(C(=O)c2c[nH]c3ncc(-c4ccc(Cl)cc4)cc23)c1F [vemurafenib]
%-inhibition AurA ([1]; AurA kinase assay, 1 µmol/L single concentration, ref DOI: 10.1371/journal.pone.0092146): 23% | %-inhibition AurA/TPX2 ([1]; AurA/TPX2 kinase assay, 1 µmol/L single concentration, ref DOI: 10.1371/journal.pone.0092146): -2.59% | %-inhibition at 1 µmol/L, RET [2, 12]: 32% | %-inhibition at 1 µmol/L, IRR [3, 12]: 21% | %-inhibition at 1 µmol/L, PKACα [4, 12]: -4% | %-inhibition BMX [5, 12]: 24% | %-inhibition, p38γ [6, 12]: -0.299% | %-inhibition BTK [7, 12]: 2% | %-inhibition at 1 µmol/L, PLK3 [8, 12]: -2.83% | %-inhibition at 1 µmol/L, IRAK4 [9, 12]: -4.29% | %-inhibition at 1 µmol/L, CK1γ3 [10, 12]: 2.14%
